Patent US20230248745A1, “SILVER ENHANCED CANNABINOID ANTIBIOTICS” (priority 2020, published 2023)
Entries after “also recorded” stand apart in the source; their conditions may differ. Like-named read-outs stand apart in the source and are kept apart here.

What was measured:
MRSA (USA300) = test: Checkerboard assay, FICI of cannabinoid/silver combinations; type: cell-based, Methicillin-resistant Staphylococcus aureus
Protocol: (§1) Antibacterial growth was measured using a checkerboard analysis or qualitatively using agar plates with zones of inhibition. Viability was measured by the number of colony forming units (CFU) over time.
(§2) Using checkerboard analysis, the fractional inhibitory concentration index (FICI) was calculated for the 96-well plate test to illustrate synergy.
(§3) MRSA strain, USA300, was cultured in Luria-Bertani (LB) medium and inoculated at 37 C.
(§4) Cannabinoids or silver (expressed as the concentration of silver not the salt) were serially diluted 2-fold across the 96-well plate (Costar, catalog no. 3370) followed by addition of 100 μL of bacterial cultures with an OD600 of 0.0025. […] Wells turbidity were then analyzed using Varioskan™ microplate reader.
(§5) FICI was calculated in a checkerboard assay based on the turbidity of the wells. FIC of each agent was determined as the ratio of the minimal inhibitory concentration MIC of one agent in the presence of the other agent to the MIC of that agent alone. FICI was consequently computed as the sum of each agent's FIC.

E. coli strain K12 = test: as above; type: cell-based, Escherichia coli; details: for FICI Silver Nanoparticles: Silver Nanoparticles in combination with the cannabinoid; for FICI Silver Sulfate: Silver Sulfate in combination with the cannabinoid
Protocol: as §1, §2
(§6) Escherichia coli (E. coli), strain K12, was cultured in Luria-Bertani (LB) medium and inoculated at 37 C.
as §4, §5

MRSA (strain USA300) [1] = test: microbe, parasite or virus in culture; type: cell-based, Methicillin-resistant Staphylococcus aureus; details: agent alone, silver expressed as silver
Excerpt: In therapeutic applications, synergy between active ingredients occurs when an observed combined therapeutic effect is greater than the sum of therapeutic effects of individual active ingredients, or a new therapeutic effect is produced that the active ingredients could not produce alone. […] In this context, the enhancement of therapeutic effect may take the form of increased efficacy or potency and/or decreased adverse effects. The synergistic effect may be mediated in whole or in part by the pharmacokinetics and/or pharmacodynamics of the active ingredients in a subject, so that the amount and proportion of the ingredients in the formulation may be synergistic in vivo. This in vivo synergy may be effected with a formulation that includes the active ingredients in amounts and proportions that are also synergistic in in vitro assays of efficacy. As used herein, the term “synergistically effective amounts” accordingly refers to amounts that are synergistic in vivo and/or in vitro. A numeric quantification of synergy is often expressed as a fractional inhibitory concentration index (FICI), which represents the sum of the fractional inhibitory concentrations (FICs) of each drug tested, where the FIC is determined for each drug by dividing the minimum inhibitory concentration (MIC, the lowest concentration of the drug which prevents visible growth of the bacterium in a standard in vitro assay—standard colorometric assay based on resazurin) of each drug when used in combination by the MIC of each drug when used alone. In very general terms, a FICI lower or higher than 1 indicates positively correlated activity (at least additive or potentiation) or an absence of positive interactions, respectively. […] (as described and used by Joung D K et al. and Rakoliya K et al.)
as §4

MRSA (strain USA300) [2] = test: Kill-curve test (CFU over time); type: cell-based, Methicillin-resistant Staphylococcus aureus; details: for MRSA growth by 24 hours: cannabinoid alone at ½×MIC
Protocol: as §1, §3
(§7) For each test tube, 1 mL of culture at OD600 of 0.005 was added to 1 mL of LB medium containing antibiotics to reach target sub-MIC concentrations of each compound. Samples of 100 μL was extracted from each tube at the determined time stamps followed by 10-fold serial dilutions. 10 μL of each dilution was then added on the LB agar plates that were subsequently incubated for 24 hours. Colonies were inspected and results quantified as log CFU/mL.

E. coli (strain K12) = test: Kill-curve test (CFU over time); type: cell-based, Escherichia coli; details: for inhibitory effect on E. coli growth over 24 hours / inhibition of E. coli growth over 24 hours / inhibition of E. coli growth (summary): cannabinoid alone; for inhibitory effect on E. coli growth over 24 hours: 8 mg/L; for inhibition of E. coli growth over 24 hours: 16 mg/L; for inhibition of E. coli growth (summary): concentrations up to 16 mg/L
Protocol: as §1, §6, §7

MRSA (strain USA 300) = type: cell-based, Methicillin-resistant Staphylococcus aureus; details: for inhibition of bacterial growth (ring): single agent at 2% w/w to PVA, films and coated catheter sections, 24 hours
Protocol: PVA films were made by solvent casting using 33 μl drops of 2.5% PVA (88% hydrolyzed, 125 KDa molecular weight) mixed with CBC, CBG or CBGA (2% w/w to PVA). […] 3 mm sections of a urethral catheter (BARDEX® BARD®) were cut and coated with the same 33 μl volume of PVA/Silver/cannabinoid used to make films. Films and coated catheter sections were dried overnight in the dark. Five cavities were created in the LB agar plates containing MRSA (strain USA 300) at OD600 of 0.005. PVA films and catheters coated with PVA films were then placed in the cavities and moistened with 20 μL of deionized distilled water. Plates were incubated for 24 hours at 37° C.

[3] = Silver Nitrate in combination with the cannabinoid
[4] = cannabinoid with silver nitrate
[5] = cannabinoid with silver sulfate
[6] = cannabinoid ½×MIC + AgNP ⅛×MIC (5 mg/L)
[7] = 8 mg/L cannabinoid + 2.5, 1.25 and 0.625 mg/L AgSO4 (each)
[8] = Staphylococcus aureus, read-out: MIC
[9] = cannabinoid with silver nanoparticles
[10] = cannabinoid ½×MIC + silver nitrate 1 mg/L
[11] = cannabinoid ½×MIC + silver nitrate 5 and 8 mg/L

Compound | FICI (MRSA (USA300); [3]) | interaction (interpretation of FICI) (MRSA (USA300); [4]) | FICI Silver Nanoparticles (E. coli strain K12) | FICI Silver Sulfate (E. coli strain K12) | interaction (interpretation of FICI) (E. coli strain K12; [5]) | MIC (MRSA (strain USA300) [1]) | kill-curve effect (CFU) (MRSA (strain USA300) [2]) | MRSA growth by 24 hours (MRSA (strain USA300) [2]) | kill-curve effect (CFU) (MRSA (strain USA300) [2]; [6]) | time of onset of bactericidal effect (MRSA (strain USA300) [2]; [6]) | time through which bactericidal effect persisted (MRSA (strain USA300) [2]; [6]) | time through which bacterial growth was inhibited (E. coli (strain K12)) | time through which the effect persisted (E. coli (strain K12)) | time to the reduction in E. coli CFU (E. coli (strain K12)) | time through which E. coli growth was inhibited (E. coli (strain K12); [7]) | time to the reduction in E. coli CFU (E. coli (strain K12); [7]) | inhibitory effect on E. coli growth over 24 hours (E. coli (strain K12)) | inhibition of E. coli growth over 24 hours (E. coli (strain K12)) | inhibition of E. coli growth (summary) (E. coli (strain K12)) | MIC (MRSA (strain USA300) [1]; [8]) | other results
CCCCCc1cc2c(c(O)c1C(=O)O)C=CC(C)(CCC=C(C)C)O2 (centres unmarked) [CBCA, cannabichromenic acid] | 2 | no improved antibiotic affect | 1.25 | 0.50 | synergistic | 2 µg/mL | greater bactericidal effect | returned to levels equal to that of 0×MIC treatment | rapid bactericidal effect | 2 h | 24 h | 24 h | 24 h | ≤ 4 h | 24 h | ≤ 6 h | failed to achieve any inhibitory effect | failed to achieve any inhibition | fail to achieve any detectable inhibition |  | time of full elimination of CFU (MRSA (strain USA300) [2]; [6]): 4 h
C=C(C)[C@@H]1CCC(C)=C[C@H]1c1c(O)cc(CCCCC)cc1O [CBD, cannabidiol, reference compound] | 2 | no improved antibiotic affect | 1.25 | 1 | not observed |  |  | returned to levels equal to that of 0×MIC treatment | rapid bactericidal effect | 2 h |  |  |  |  |  |  |  | no inhibition | fail to achieve any detectable inhibition | 2 µg/mL | MRSA growth over 24 hours compared to cannabinoid alone (MRSA (strain USA300) [2]; [6]): substantive decrease; inhibition of E. coli growth over 24 hours by the combination (E. coli (strain K12); 16 mg/L cannabinoid + 2.5 mg/L AgSO4): did not result in a substantial inhibition; also recorded: no increase in antimicrobial activity
C=C(C)[C@@H]1CCC(C)=C[C@H]1c1c(O)cc(CCCCC)c(C(=O)O)c1O [CBDA, cannabidiolic acid] | 2 | no improved antibiotic affect | 0.73 | 0.52 | potentiation |  |  |  |  |  |  | 24 h | 24 h | ≤ 4 h | 24 h | ≤ 6 h | failed to achieve any inhibitory effect | failed to achieve any inhibition | fail to achieve any detectable inhibition |  | interaction (interpretation of FICI) (E. coli strain K12; [9]): potentiation
CCCCCc1cc(O)c(C/C=C(\C)CCC=C(C)C)c(O)c1 [CBG, cannabigerol] | 0.625 | partially synergistic | 1.25 | 1 | not observed |  | highly comparable bactericidal effect | returned to levels equal to that of 0×MIC treatment | rapid, full bactericidal effect | 2 h | 24 h |  |  |  |  |  |  |  |  | 2 µg/mL | FICI (MRSA (USA300); Silver Nanoparticles in combination with the cannabinoid): 0.625; interaction (interpretation of FICI) (MRSA (USA300); [9]): partial synergy; time for which bactericidal effect persisted (MRSA (strain USA300) [2]): 24 h; kill-curve effect (CFU) (MRSA (strain USA300) [2]; cannabinoid ¼×MIC + silver nitrate 5 and 8 mg/L): perceptibly bactericidal; kill-curve effect (CFU) (MRSA (strain USA300) [2]; cannabinoid ½×MIC + AgNP 1/160×MIC (0.25 mg/L)): bactericidal effect which was greater than that seen with ½×MIC CBG alone; kill-curve effect (CFU) (MRSA (strain USA300) [2]; [10]): bactericidal effect; time for which bactericidal effect remained (MRSA (strain USA300) [2]; [10]): up to 6 hours; time of onset of bactericidal effect (MRSA (strain USA300) [2]; [10]): 2 h; kill-curve effect (CFU) (MRSA (strain USA300) [2]; [11]): fully bactericidal effect; time of onset of bactericidal effect (MRSA (strain USA300) [2]; [11]): 2 h; time through which bactericidal effect remained (MRSA (strain USA300) [2]; [11]): 24 h; antibiotic effect of combination compared with silver nanoparticles alone (MRSA (strain USA 300)): increased antibiotic effect; inhibition of bacterial growth (ring) (MRSA (strain USA 300)): some level of inhibition
O=[N+]([O-])[O-].[Ag+] [silver nitrate, reference compound] |  |  |  |  |  | 16 µg/mL |  |  |  |  |  |  |  |  |  |  |  |  |  |  | bacterial growth at 24 hours (MRSA (strain USA300) [2]; silver nitrate alone, 1 mg/L): full bacterial growth had occurred; duration of bacterial growth inhibition (MRSA (strain USA300) [2]; silver nitrate alone, 5 mg/L): 4 h; duration of bacterial growth inhibition (MRSA (strain USA300) [2]; silver nitrate alone, 8 mg/L): 6 h; inhibition of bacterial growth (ring) (MRSA (strain USA 300)): some level of inhibition; inhibition of bacterial growth (ring) (MRSA (strain USA 300); listed as Silver nitrate): strong inhibition
